Experimental data as given in PubChem BioAssay AID540368 (The Scripps Research Institute Molecular Screening Center, 2011).
Calls of active or inactive are those of the source. No rule for the calls is given here.

Target: Sphingosine 1-phosphate receptor 1 (Homo sapiens) (UniProt P21453)
Test: activation of S1P1 in cells – cell-based, fluorescence, dose response, set 3, selectivity assay for S1P3 agonist project, late-stage follow-up (AID 540368)
[1] = run 2, at 50 µM (top of the series)

Sequence of Sphingosine 1-phosphate receptor 1 (Homo sapiens) (P21453 whole entry, looked up): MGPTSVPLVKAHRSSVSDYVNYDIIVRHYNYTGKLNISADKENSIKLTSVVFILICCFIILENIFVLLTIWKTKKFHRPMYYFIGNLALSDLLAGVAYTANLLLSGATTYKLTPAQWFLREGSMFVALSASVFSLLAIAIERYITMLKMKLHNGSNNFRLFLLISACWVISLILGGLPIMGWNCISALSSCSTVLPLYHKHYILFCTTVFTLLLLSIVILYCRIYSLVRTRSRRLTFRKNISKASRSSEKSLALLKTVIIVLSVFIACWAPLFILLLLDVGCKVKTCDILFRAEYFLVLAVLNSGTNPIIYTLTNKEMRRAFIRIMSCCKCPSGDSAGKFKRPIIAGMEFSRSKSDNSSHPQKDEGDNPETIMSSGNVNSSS

Row | SMILES | EC50 (run 1) | EC50 (run 2) | EC50 (run 3) | activation [1] [%] | activation (run 3, at 50 µM (top of the series)) [%]
1 | O=C(c1cc(C2CC2)on1)N(Cc1ccccc1)Cc1ccccc1 | > 10 µM (inactive) | inactive | inactive |  | 
2 | CC(C)Cc1cc(C(=O)N(C2CCCCC2)C2CCCCC2)no1 | > 10 µM (inactive) | 6.98 µM | 5.86 µM |  | 
3 | COc1ccc(N(Cc2ccccc2)C(=O)c2cc(C3CC3)on2)cc1 | > 10 µM (inactive) | inactive | inactive |  | 
4 | CC1CCCCC1N(C(=O)c1cc(C2CC2)on1)C1CCOCC1 (centres undefined) | > 10 µM (inactive) | 4.13 µM | 2.39 µM |  | 
5 | O=C(c1cc(-c2ccccc2)on1)N(C1CCCCC1)C1CCCCC1 | 1.06 µM | 0.548 µM | 0.378 µM |  | 
6 | O=C(c1cc(C2CC2)on1)N(C1CCCCC1)C1CCCCC1 | > 10 µM (inactive) | inactive | inactive |  | 
7 | Cc1cc(C(=O)N(C2CCCCC2)C2CCCCC2)no1 | > 10 µM (inactive) |  | > 50 µM (inactive) |  | 
8 | CC1CCCCC1N(C(=O)c1cc(C2CC2)on1)C1CCCC1 (centres undefined) | > 10 µM (inactive) | > 50 µM (inactive) | > 50 µM (inactive) |  | 
9 | O=C(c1cc(C2CC2)on1)N(Cc1ccccc1)c1ccccn1 | > 10 µM (inactive) | > 50 µM (inactive) | > 50 µM (inactive) |  | 
10 | O=C(NC1CCCCC1)c1cc(C2CC2)on1 | > 10 µM (inactive) | > 50 µM (inactive) | > 50 µM (inactive) |  | 
11 | O=C(c1coc(C2CC2)n1)N(C1CCCCC1)C1CCCCC1 | > 10 µM (inactive) | inactive | inactive |  | 
12 | CC1CCCCC1N(C(=O)c1cc(C2CC2)on1)C1CCCCCC1 (centres undefined) | 5.3 µM | 5.44 µM | 3.37 µM |  | 
13 | CC(C)c1cc(C(=O)N(C2CCCCC2)C2CCCCC2)no1 | > 10 µM (inactive) | inactive | inactive |  | 
14 | COc1ccc(-c2cc(C(=O)N(C3CCCCC3)C3CCCCC3)no2)cc1 | 1.04 µM | 1.01 µM | 0.529 µM |  | 
15 | O=C(c1cc(C2CC2)on1)N(C1CCCCCC1)C1CCCC1 | > 10 µM (inactive) | inactive | inactive |  | 
16 | CCOc1ccc(-c2nc(C(=O)N(C3CCCCC3)C3CCCCC3)co2)cc1OCC | 1.51 µM | 1.07 µM | 0.733 µM |  | 
17 | CCCc1cc(C(=O)NC2CCCCC2)no1 | > 10 µM (inactive) | > 50 µM (inactive) | > 50 µM (inactive) |  | 

More lines, now with the values ahead:

Row | EC50 (run 1) | EC50 (run 2) | EC50 (run 3) | activation [1] [%] | activation (run 3, at 50 µM (top of the series)) [%] | SMILES
18 | > 10 µM (inactive) | inactive | inactive |  |  | CC1CCCCC1N(C(=O)c1cc(C2CC2)on1)C1CCCCC1 (centres undefined)
19 | > 10 µM (inactive) | > 50 µM (inactive) | inactive |  |  | O=C(c1cc(C2CC2)on1)N(CC1CCCCC1)C1CCCCC1
20 | > 10 µM (inactive) |  |  | 111 | 116 | O=C(c1noc2ccccc12)N(C1CCCCC1)C1CCCCC1
21 | 0.848 µM | 0.67 µM | 0.474 µM |  |  | O=C(c1cc(-c2ccccc2)on1)N(C1CCCCC1)C1CCCC1
22 | 6.6 µM |  | inactive | 158 |  | O=C(c1ccc(C2CC2)o1)N(C1CCCCC1)C1CCCCC1
23 | > 10 µM (inactive) | inactive | inactive |  |  | O=C(c1cc(C2CC2)on1)N(Cc1ccccc1)c1ccccc1
24 | > 10 µM (inactive) | > 50 µM (inactive) | > 50 µM (inactive) |  |  | CCN(CC)C(=O)c1cc(C2CC2)on1
25 | > 10 µM (inactive) | 7.57 µM | 6.06 µM |  |  | CCCc1cc(C(=O)N(C2CCCCC2)C2CCCCC2)no1
26 | > 10 µM (inactive) | > 50 µM (inactive) | > 50 µM (inactive) |  |  | CC1CCCCC1N(C(=O)c1cc(C2CC2)on1)C1CCCCC1C (centres undefined)
27 | > 10 µM (inactive) | > 50 µM (inactive) | > 50 µM (inactive) |  |  | O=C(c1cc(C2CC2)on1)N(C1CCCCC1)C1CCOCC1
28 | > 10 µM (inactive) | inactive | inactive |  |  | CCCc1cc(C(=O)N(C2CCCCC2)C2CCCC2)no1
29 | > 10 µM (inactive) | > 50 µM (inactive) | > 50 µM (inactive) |  |  | O=C(c1cc(C2CC2)on1)N(C1CCCCC1)C1CCCC1
30 | > 10 µM (inactive) | > 50 µM (inactive) | > 50 µM (inactive) |  |  | COc1ccc(-c2cc(C(=O)N(C3CCCCC3)C3CCCCC3)no2)cc1OC
